Laboratory results: US20160195544A1, “METHOD OF DIAGNOSING SEPSIS OR SEPSIS RISK” (UNIVERSITY OF ROCHESTER, priority 2013, published 2016)

Experiments:
[1] = system: neutrophils isolated from healthy donors; experiment: In vitro stimulation of neutrophils from healthy donors, VLA-3 expression by RT-PCR and flow cytometry; type: cell-based; details: human neutrophils, 1 and 3 hours of stimulation, PMA 20 ng/ml, LPS 100 μg/ml
Source text: Blood was collected from healthy volunteers via antecubital vein puncture in heparin containing vacutainers. Granulocytes and erythrocytes were separated from whole blood by centrifugation through 1-step Polymorphs (Fresenius Kabi Norge AS) density gradient. Remaining erythrocytes were removed by hypotonic lysis, yielding a neutrophil purity of >98%. The Human Research Studies Review Board of the University of Rochester approved this study, and informed consent was obtained in accordance with the Declaration of Helsinki To measure integrin expression, neutrophils were stimulated with PMA (20 ng/ml), TNF-α (20 ng/ml), LPS (100 μg/ml) or fMLP (1 μM for 1 hour or 3 hours in L15 (Leibovitz) medium with glucose at 37° C. temperatures.
Total RNA was prepared from human neutrophils or sorted mouse bone marrow granulocytes using RNeasy Mini Kit (QIAGEN, Valencia, Calif.). Similarly, RNA was reverse transcribed by using murine leukemia virus reverse transcriptase (Life Technologies, Bethesda, Md.), with oligo(dT) as the primer (Invitrogen, San Diego, Calif.). All cDNAs were divided into aliquots and stored at −20° C. until further use. Quantitation of integrins α3 and α2 on human neutrophils and IL-6, IL-β and TNFα mRNA were performed using TaqMan® Gene Expression Assays (Applied Biosystems). […] RQ values were analyzed using software.

[2] = target: T1, VLA-3 (Mus musculus, UniProt P09055+Q62470); experiment: Transmission electron microscopy of fMLP-superfused cremaster microvasculature; type: in vivo; details: 88 μg IV
T1 construct: endogenous in cells; host or cells: neutrophils and other tissues of live mice (C57BL/6; LysM-GFP bone marrow chimeras)
T1 sequence (Q62470 33-1053): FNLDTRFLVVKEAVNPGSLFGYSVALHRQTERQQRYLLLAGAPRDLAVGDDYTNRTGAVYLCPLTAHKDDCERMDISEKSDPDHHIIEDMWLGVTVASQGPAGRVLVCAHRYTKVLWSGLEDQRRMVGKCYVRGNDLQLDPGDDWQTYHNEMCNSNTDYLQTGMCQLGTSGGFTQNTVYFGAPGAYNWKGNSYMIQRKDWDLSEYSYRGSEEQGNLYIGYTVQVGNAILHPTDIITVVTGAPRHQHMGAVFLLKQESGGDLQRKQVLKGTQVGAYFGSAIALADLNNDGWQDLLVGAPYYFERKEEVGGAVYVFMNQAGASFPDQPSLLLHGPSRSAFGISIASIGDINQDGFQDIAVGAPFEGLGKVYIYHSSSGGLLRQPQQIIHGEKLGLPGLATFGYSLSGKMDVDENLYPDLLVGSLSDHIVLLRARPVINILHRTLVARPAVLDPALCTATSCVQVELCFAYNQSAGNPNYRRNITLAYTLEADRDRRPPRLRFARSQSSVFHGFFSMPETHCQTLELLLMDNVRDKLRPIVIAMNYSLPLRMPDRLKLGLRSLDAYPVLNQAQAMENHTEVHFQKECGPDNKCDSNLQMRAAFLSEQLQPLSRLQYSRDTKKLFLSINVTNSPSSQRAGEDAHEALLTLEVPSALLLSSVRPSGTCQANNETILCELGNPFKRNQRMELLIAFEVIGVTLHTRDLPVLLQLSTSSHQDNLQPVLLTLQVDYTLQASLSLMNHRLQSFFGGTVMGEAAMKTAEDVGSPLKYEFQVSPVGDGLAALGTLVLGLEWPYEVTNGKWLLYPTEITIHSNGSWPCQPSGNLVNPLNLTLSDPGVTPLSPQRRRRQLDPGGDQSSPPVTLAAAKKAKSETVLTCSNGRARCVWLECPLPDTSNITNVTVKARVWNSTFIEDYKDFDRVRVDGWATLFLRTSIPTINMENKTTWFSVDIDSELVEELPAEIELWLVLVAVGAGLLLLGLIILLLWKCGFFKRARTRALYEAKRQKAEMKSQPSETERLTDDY
T1 sequence (P09055 21-798): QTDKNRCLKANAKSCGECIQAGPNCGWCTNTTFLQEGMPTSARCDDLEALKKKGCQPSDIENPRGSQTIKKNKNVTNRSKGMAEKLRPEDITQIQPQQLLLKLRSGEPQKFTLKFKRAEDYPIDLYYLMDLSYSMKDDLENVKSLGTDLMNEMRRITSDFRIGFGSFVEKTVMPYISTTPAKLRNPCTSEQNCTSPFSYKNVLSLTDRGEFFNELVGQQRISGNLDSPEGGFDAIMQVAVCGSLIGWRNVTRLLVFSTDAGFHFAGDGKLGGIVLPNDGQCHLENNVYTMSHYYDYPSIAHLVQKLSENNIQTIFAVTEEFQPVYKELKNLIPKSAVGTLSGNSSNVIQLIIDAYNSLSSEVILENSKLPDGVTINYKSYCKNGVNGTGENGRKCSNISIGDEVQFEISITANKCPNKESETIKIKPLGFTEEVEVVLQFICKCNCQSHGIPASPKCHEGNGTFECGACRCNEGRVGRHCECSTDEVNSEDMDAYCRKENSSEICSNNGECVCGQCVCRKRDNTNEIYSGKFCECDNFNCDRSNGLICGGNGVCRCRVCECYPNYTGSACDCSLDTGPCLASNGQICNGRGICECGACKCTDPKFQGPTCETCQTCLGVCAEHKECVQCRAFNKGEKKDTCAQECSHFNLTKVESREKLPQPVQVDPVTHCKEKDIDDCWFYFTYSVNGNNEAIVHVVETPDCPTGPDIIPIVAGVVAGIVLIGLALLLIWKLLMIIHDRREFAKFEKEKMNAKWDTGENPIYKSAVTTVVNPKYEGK
Protocol: Leukocyte extravasation was first observed on the fMLP-stimulated cremaster venules of LysM-GFP mice by MP-IVM. LXY2 (88 μg) peptide was injected IV when extravasating cells were noticed. The cremaster was then immediately dissected from the body post-euthanization and fixed with 2.5% glutaraldehyde. The tissue was further processed for transmission electron microscopy at the Electron Microscope Research Core at the University of Rochester for transmission electron microscopy.

[3] = target: T1, VLA-3; experiment: LPS-induced endotoxemia mouse model, VLA-3 blocking with peptide; type: in vivo; details: endotoxemia mice, 8 hours, 88 μg peptide, vs control peptide
Protocol: (§1) Endotoxemia and CLP were performed according to Animal Resource Protocol approved by the Committee at University of Rochester. For endotoxemia assay, 8-12-wk-old C57BL/6 (Harlan) male mice were weighed and LPS (E. coli […], Sigma-Aldrich) was administered by intra peritoneal (IP) injection to achieve LD90 mortality rate. CLP survival surgery was performed under isofluorane inhalation anesthesia. Caecum was ligated and punctured through and through with a 21-gauge needle. All the mice were resuscitated with 1 ml lactated Ringers injected subcutaneously. For VLA-3 blocking experiments, LXY2 (88 μg) (CysD-AspD-Gly-Tyr(3-NO2)-Gly-4Hyp-Asn-CysD) where the amino acids may be D amino acids, or control (88 μg) (Peptide International) peptides were administered intravenously (IV) at 2 hours and by IP at 8 hours, 32 hours following CLP or endotoxemia. Survival was monitored for 120 hours.
For flow cytometry measurement of the integrin expression on neutrophil, bone marrow (BM), peritoneal Lavage (PL), peripheral blood and lungs were isolated from naïve and septic mice at the indicated time points and subsequently single-cell suspensions were prepared. RBC lysis was performed using ACK lysing buffer (Invitrogen, San Diego, Calif.). The Fc receptors were blocked with unconjugated anti-CD16/32 (eBioscience, San Diego, Calif.) for 30 minutes. […] Data were analyzed using Flow Jo software.

[4] = target: T1, VLA-3; experiment: CLP (cecal ligation and puncture) sepsis mouse model, VLA-3 blocking with peptide; type: in vivo
Protocol: as §1
For flow cytometry measurement of the integrin expression on neutrophil, bone marrow (BM), peritoneal Lavage (PL), peripheral blood and lungs were isolated from naïve and septic mice at the indicated time points and subsequently single-cell suspensions were prepared. RBC lysis was performed using ACK lysing buffer (Invitrogen, San Diego, Calif.). The Fc receptors were blocked with unconjugated anti-CD16/32 (eBioscience, San Diego, Calif.) for 30 minutes. Samples were stained with Alexafluor 488 labeled anti-Gr1 (Invitrogen). Allophycocyanin (APC) labeled Ly6G (BD Biosciences), PerCp-Cy5.5 labeled anti-CD11b (eBioscience, San Diego, Calif.,), fluorescein isothiocyanate (FITC) anti-F4/80 (eBioscience, San Diego, Calif., USA), purified goat anti-mouse integrin α3/CD49c (R&D Systems), PE-anti-mouse integrin α2/CD49b, α5/CD49e, αv/CD51, APC-anti-mouse integrin α6/CD49f and PE conjugated donkey anti-goat IgG (Santa Cruz) antibodies were used. All samples were fixed with 3.7% formaldehyde and collected on FACS Calliber flow cytometer (BD Biosciences, San Diego, Calif.). Data were analyzed using Flow Jo software.
Peritoneal lavage was collected after injection of 10 ml PBS into the peritoneum. […] Colony count for each group was expressed as CFU/ml.
Serum from individual mice was collected at the indicated time points and the level of IL-6 was determined by standard sandwich ELISA protocol. […] The color reaction was developed using TMB (Thermo Scientific, Rockford, Ill.) and measured with an ELISA reader (Kinetic microplate reader; Molecular Devices) at 450 nm.
All values are expressed as the mean±SEM. Data from human samples were analyzed by one-way ANOVA. Data from murine experiments were analyzed by paired non-parametric t-test (Wilcoxon test). Survival curves were analyzed by the Kaplan-Meyer log-rank test. […]

[5] = target: T1, VLA-3; experiment: Multiphoton intravital microscopy (MP-IVM) of fMLP-superfused cremaster vessels of LysM-GFP mice; type: in vivo; details: fMLP 1 μM superfusion, 88 μg IV
Source text: For MP-IVM of Lysozyme M (LysM)-GFP mice (Faust et al., “Insertion of Enhanced Green Fluorescent Protein Into the Lysozyme Gene Creates Mice With Green Fluorescent Granulocytes and Macrophages,” Blood 96:719-726 (2000), the disclosure of which is incorporated herein by reference in its entirety) in which granulocytes and monocytes express GFP were used. In order to accurately track morphological changes and migration velocities of individual extravasating leukocytes, mixed bone marrow chimera mice were generated using 80% WT and 20% LysM-GFP bone marrow into irradiated WT recipient mice to reduce the density of fluorescent cells during imaging. 8 weeks after bone marrow transfer to the irradiated recipient mice, the mice were then used for in vivo imaging. Cremaster muscle was prepared for imaging as previously described (Sumagin et al., “Leukocyte-Endothelial Cell Interactions are Linked to Vascular Permeability Via ICAM-1-Mediated Signaling,” Am. J. Physiol. Heart Circ. Physiol. 295:H969-H977 (2008), the disclosure of which is incorporated herein by reference in its entirety). Briefly, mice were anesthetized with pentobarbital sodium (65 mg/kg IP) and maintained on isoflorane inhalation anesthesia. The body temperature was maintained by placing the animal on a warming pad set. […] Imaging data were analyzed with velocity software (PerkinElmer).

Molecule | mRNA level of VLA-3 ([1]; RT-PCR) | protein (cell-surface) level of VLA-3 ([1]; flow cytometry) | location of neutrophils in the vessel wall (ultrastructural analysis) [2] | number of tissue-infiltrating neutrophils (PL) [3] | survival / sepsis lethality ([4]; CLP and endotoxemia mice, 88 μg IV at 2 hours and IP at 8 and 32 hours, survival monitored 120 hours, Kaplan-Meyer log-rank) | number of tissue-infiltrating neutrophils (PL and lungs) ([4]; mice with CLP-induced sepsis, 8 hours after CLP, 88 μg/dose IV, vs control peptide) | local bacterial clearance (bacterial load in PL) ([4]; septic mice, PL streaked on TSA blood agar, colonies counted after 24 hours) | levels of the IL-6 cytokine in the serum ([4]; septic mice, sandwich ELISA) | neutrophil extravasation in response to fMLP [5]
CCCCCCCCCCCCCC(=O)O[C@@H]1[C@@H](C)[C@@]2(O)[C@@H](C=C(CO)C[C@]3(O)C(=O)C(C)=C[C@@H]23)[C@@H]2C(C)(C)[C@]12OC(C)=O [PMA] | significant increases | significant increases |  |  |  |  |  |  | 
CysD-AspD-Gly-Tyr(3-NO2)-Gly-4Hyp-Asn-CysD [LXY2] |  |  | majority of neutrophils accumulated within the space between the endothelium and the basement membrane | significantly reduced | protected mice from sepsis lethality | significantly reduced | without altering | reduced | dramatically reduced
